This is an account of results in ChEMBL document CHEMBL3431459, “Roche carnitine palmitoyltransferase modulator screening data (supplementary data associated with the publication CHEMBL2216752)”.

A short description of series [1]: SUPPLEMENTARY: Lipophilicity (log D) Determination by high-throughput shake-flask. It is filed as physicochemical. The following applies: octanol/water.
Series [2] addresses T1, Carnitine O-palmitoyltransferase 2, mitochondrial (Rattus norvegicus, UniProt P18886).
T1 sequence (P18886 whole entry): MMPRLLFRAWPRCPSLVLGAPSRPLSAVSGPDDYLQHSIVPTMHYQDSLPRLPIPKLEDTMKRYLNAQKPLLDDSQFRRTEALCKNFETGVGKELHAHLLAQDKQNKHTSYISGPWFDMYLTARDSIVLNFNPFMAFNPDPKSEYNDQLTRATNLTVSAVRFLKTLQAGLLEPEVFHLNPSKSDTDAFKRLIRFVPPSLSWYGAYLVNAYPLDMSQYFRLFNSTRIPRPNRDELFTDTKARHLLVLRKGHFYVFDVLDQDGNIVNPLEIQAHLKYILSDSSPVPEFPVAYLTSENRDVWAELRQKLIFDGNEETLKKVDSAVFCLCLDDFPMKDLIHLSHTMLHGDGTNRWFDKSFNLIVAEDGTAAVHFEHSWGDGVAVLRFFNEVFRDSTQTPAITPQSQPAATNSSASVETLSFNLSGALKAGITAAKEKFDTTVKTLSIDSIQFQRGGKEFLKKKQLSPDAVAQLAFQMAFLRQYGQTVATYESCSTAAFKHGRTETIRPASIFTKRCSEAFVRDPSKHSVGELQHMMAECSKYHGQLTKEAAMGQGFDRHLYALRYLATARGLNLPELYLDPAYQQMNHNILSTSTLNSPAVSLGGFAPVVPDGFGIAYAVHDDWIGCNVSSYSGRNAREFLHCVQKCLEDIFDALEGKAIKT
Nature of the series: (§1) SUPPLEMENTARY: Inhibition of Carnitine palmitoyltransferase 2.

In series [3] the target is T2, Carnitine O-palmitoyltransferase 2, mitochondrial (Homo sapiens, UniProt P23786).
T2 sequence (P23786 whole entry): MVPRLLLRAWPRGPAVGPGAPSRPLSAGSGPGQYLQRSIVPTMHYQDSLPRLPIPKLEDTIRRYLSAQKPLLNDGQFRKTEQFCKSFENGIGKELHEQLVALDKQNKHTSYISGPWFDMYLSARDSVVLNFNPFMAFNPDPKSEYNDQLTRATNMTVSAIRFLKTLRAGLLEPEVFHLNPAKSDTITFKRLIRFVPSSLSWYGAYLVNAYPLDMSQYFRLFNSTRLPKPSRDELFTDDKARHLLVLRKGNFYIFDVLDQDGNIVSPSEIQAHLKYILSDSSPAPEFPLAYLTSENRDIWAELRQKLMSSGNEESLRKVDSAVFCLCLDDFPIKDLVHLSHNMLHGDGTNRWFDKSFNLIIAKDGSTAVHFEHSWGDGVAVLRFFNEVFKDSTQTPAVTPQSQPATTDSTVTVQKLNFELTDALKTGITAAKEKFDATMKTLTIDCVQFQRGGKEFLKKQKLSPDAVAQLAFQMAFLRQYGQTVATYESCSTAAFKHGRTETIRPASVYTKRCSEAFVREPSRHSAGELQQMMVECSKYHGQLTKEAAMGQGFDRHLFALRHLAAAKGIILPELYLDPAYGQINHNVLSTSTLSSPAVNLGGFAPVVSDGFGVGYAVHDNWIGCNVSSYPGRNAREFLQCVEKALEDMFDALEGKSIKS
The series is described as §1.

Series [4] deals with T3, Carnitine O-palmitoyltransferase 1, muscle isoform (Homo sapiens, UniProt Q92523).
T3 sequence (Q92523 whole entry): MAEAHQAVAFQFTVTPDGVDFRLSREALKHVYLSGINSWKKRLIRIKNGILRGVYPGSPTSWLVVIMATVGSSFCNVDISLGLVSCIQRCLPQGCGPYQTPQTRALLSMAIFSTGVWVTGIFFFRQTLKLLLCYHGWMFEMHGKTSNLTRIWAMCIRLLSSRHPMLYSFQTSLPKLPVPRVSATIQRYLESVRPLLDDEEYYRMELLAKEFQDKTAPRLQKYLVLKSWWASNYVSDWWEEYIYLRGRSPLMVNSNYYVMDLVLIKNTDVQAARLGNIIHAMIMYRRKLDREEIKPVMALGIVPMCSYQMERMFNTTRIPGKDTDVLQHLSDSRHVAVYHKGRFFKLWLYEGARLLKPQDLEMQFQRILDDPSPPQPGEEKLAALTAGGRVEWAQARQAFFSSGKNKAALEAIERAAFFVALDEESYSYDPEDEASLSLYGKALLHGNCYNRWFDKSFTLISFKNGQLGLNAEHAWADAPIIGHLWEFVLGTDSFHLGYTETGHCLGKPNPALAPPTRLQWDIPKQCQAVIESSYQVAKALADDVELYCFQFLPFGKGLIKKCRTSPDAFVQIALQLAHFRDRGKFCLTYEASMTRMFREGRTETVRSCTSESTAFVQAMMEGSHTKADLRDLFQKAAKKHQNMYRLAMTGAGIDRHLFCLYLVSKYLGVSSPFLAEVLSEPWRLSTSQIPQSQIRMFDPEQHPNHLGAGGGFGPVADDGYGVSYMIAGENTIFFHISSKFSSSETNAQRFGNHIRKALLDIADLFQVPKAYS
The series is described as follows: SUPPLEMENTARY: Inhibition of Carnitine palmitoyltransferase 1, muscle isoform. On the set-up: species or system Muscle tissue.

Series [5] in a line: SUPPLEMENTARY: Lyophilisation Solubility Assay (LYSA). Format: physicochemical. The following applies: read-out: Kinetic_solubility.
Series [6] can be described thus: SUPPLEMENTARY: PAMPA permeability assay. It is filed as physicochemical. Conditions: read-out: Permeability. Background: The PAMPA barrier holds no transporters, so it reflects passive diffusion.
The target in series [7] is T4, Carnitine O-palmitoyltransferase 1, liver isoform (Rattus norvegicus, UniProt P32198).
T4 sequence (P32198 whole entry): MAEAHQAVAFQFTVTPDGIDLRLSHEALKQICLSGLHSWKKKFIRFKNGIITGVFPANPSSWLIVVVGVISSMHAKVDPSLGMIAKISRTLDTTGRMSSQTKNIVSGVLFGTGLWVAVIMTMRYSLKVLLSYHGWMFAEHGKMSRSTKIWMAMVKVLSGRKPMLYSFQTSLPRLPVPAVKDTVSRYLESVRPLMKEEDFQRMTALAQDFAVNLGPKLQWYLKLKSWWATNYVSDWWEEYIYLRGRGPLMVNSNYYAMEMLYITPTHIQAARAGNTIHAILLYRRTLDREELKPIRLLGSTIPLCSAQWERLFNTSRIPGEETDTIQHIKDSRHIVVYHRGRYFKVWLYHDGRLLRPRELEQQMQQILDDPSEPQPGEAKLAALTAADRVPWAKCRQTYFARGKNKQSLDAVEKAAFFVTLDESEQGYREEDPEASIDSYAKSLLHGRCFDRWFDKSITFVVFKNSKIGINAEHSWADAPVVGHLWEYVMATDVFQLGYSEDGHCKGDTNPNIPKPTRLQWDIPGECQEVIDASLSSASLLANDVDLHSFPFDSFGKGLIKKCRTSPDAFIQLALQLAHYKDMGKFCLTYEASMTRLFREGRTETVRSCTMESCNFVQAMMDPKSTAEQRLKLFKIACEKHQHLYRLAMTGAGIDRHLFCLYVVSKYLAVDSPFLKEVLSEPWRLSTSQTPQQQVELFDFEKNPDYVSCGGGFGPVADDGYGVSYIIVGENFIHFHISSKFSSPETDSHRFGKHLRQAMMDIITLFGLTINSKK
The series is described as follows: (§2) SUPPLEMENTARY: Inhibition of Carnitine palmitoyltransferase 1, liver isoform.

The target in series [8] is T5, Carnitine O-palmitoyltransferase 1, liver isoform (Homo sapiens, UniProt P50416).
T5 sequence (P50416 whole entry): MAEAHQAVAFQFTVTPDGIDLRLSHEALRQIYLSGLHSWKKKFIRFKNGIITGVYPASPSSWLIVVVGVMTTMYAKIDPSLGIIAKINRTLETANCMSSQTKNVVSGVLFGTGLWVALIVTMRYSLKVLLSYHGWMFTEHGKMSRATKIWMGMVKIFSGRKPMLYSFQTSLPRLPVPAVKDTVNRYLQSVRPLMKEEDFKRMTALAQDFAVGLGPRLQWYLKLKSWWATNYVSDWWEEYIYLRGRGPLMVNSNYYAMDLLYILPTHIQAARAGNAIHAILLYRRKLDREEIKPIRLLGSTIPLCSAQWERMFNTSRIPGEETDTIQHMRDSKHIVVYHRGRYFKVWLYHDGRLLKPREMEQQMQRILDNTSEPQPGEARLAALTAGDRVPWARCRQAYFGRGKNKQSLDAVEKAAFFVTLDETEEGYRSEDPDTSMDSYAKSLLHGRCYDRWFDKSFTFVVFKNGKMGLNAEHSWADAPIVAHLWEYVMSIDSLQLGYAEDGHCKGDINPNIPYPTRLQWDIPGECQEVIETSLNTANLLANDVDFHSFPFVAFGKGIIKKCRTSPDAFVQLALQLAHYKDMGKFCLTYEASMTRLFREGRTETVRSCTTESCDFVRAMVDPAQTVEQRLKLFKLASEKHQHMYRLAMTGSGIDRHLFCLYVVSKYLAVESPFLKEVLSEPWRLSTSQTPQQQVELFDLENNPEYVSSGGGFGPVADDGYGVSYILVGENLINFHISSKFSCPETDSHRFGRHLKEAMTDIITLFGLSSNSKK
Described as §2.

pIC50: −log10 of the molar value. ≈ marks a conversion by molar mass, not a printed value. Bounds are passed on as bounds.

Broadly, the logD is the decadic logarithm of the distribution of all forms, ionised or not, between an organic phase and buffer at a given pH. High values mean higher lipophilicity, low ones lower lipophilicity. Usually pIC50 stands for −log10 of the IC50, conventionally taken in molar units. `O=C(COc1ccccc1)N1CCCC[C@@H]1c1noc(-c2ccc3snnc3c2)n1` displayed a logD in series [1] above 3. The pIC50 is 4.37 in series [2]; 5.56 in series [3]; below 4.00 in series [4]; 6.74 in series [7]; 7.11 in series [8]. Moreover, in series [5], the solubility kinetic was 0.001 mg/mL (≈ 2.37 µM). Also, the Papp in series [6] is 24.2 nm/s.
`COc1ccc(Cl)cc1S(=O)(=O)N1CCOc2c(C)cc(C(=O)Nc3nc(CC(=O)O)cs3)cc21` yielded a logD in series [1] of 2.55. Moreover, the pIC50 was below 4.00 in series [2]; below 4.00 in series [3]; 5.50 in series [4]; 7.42 in series [7]; 7.27 in series [8]. Besides, the solubility kinetic in series [5] was found to be 0.003 mg/mL (≈ 5.58 µM). Besides, the Papp in series [6] was 18.8 nm/s.
In series [1], `O=C(COc1ccccc1)N1CCC(n2c(COc3ccccc3)nc3cc(F)ccc32)CC1` displayed a logD of 3.95. In addition, the pIC50 is below 4.00 in series [2]; below 4.00 in series [3]; below 4.00 in series [4]; below 5.00 in series [7]; 4.35 in series [8]. Moreover, in series [5], the solubility kinetic is below 0.001 mg/mL. Moreover, the Papp in series [6] came to 22.7 nm/s.
For the molecule `O=C(COc1ccccc1)N1CCCC[C@@H]1c1nc(-c2ccc3[nH]cnc3c2)no1`, in series [1], the logD amounted to 3.08. For the same molecule, the pIC50 in series [2] was 4.72; in series [3] it was 4.72; in series [4] it was below 4.00; in series [7] it was 6.97; in series [8], 7.58. The solubility kinetic in series [5] was 0.00955 mg/mL (≈ 23.7 µM). For the same molecule, the Papp in series [6] is 28 nm/s.
Molecule `CC(=O)NCc1cccc(-c2n[nH]c([C@H]3CCCCN3C(=O)COc3ccccc3)n2)c1` registered a logD in series [1] of 2.17. For the same molecule, the pIC50 in series [2] was below 4.00; in series [3] it was 4.27; in series [4], below 4.00; in series [7], 6.37; in series [8], 6.72. Also, the solubility kinetic in series [5] came out at 0.295 mg/mL (≈ 680 µM). The Papp in series [6] was 40.4 nm/s.
Molecule `NC(=O)c1cn2ccc(-c3noc([C@H]4CCCCN4C(=O)COc4ccccc4)n3)cc2n1` had a logD in series [1] of 2.79. Besides, the pIC50 in series [2] was 4.74; in series [3], 4.92; in series [4] it was below 4.00; in series [7], 6.18; in series [8] it was 7.02. The solubility kinetic in series [5] turned out to be 0.01 mg/mL (≈ 22.4 µM). Besides, the Papp in series [6] was found to be 55.5 nm/s.
As for `O=C(COc1ccccc1)N1CCCC[C@@H]1c1noc(-c2cc(Cl)nnc2O)n1`, the logD in series [1] worked out at 1.84. Besides, the pIC50 in series [2] was below 4.00; in series [3], 4.64; in series [4], 4.14; in series [7], 6.20; in series [8], 6.92. For the same molecule, the solubility kinetic in series [5] was above 0.509 mg/mL. The Papp in series [6] came out at 62.1 nm/s.
`COc1ccc(Cl)cc1S(=O)(=O)N1CCc2ccc(C(=O)Nc3ccc(CC(=O)O)cc3)cc21` returned a logD in series [1] of 0.33. For the same molecule, the pIC50 was below 4.00 in series [2]; below 4.00 in series [3]; 5.67 in series [4]; 7.49 in series [7]; 7.01 in series [8]. Moreover, in series [5], the solubility kinetic came to 0.532 mg/mL (≈ 1060 µM). Also, in series [6], the Papp was 40.9 nm/s.
Regarding `Cc1cc(C)cc(S(=O)(=O)N2CCOc3ccc(C(=O)Nc4nc(CC(=O)O)cs4)cc32)c1`, the logD in series [1] came out at 0.5. The pIC50 in series [2] was below 4.00; in series [3] it was below 4.00; in series [4] it was 6.10; in series [7] it was 7.50; in series [8], 7.37. The solubility kinetic in series [5] is above 0.615 mg/mL. Besides, the Papp in series [6] turned out to be 31.7 nm/s.
Regarding `CCN(c1cc(C(=O)Nc2nc(CC(=O)O)cs2)cc2c1OCO2)S(=O)(=O)c1cc(Cl)ccc1OC`, the logD in series [1] came to 2.65. The pIC50 is below 4.00 in series [2]; below 4.00 in series [3]; 5.95 in series [4]; 7.07 in series [7]; 7.02 in series [8]. In addition, the solubility kinetic in series [5] was found to be 0.102 mg/mL (≈ 184 µM). Besides, the Papp in series [6] came out at 34 nm/s.
